According to patent US11344534B2, “Cholinergic agonism for the treatment of pancreatic cancer” (priority 2017, dated 2022):
Entries after “also recorded” stand apart in the source; their conditions may differ.

Key:
PDA patients = assay: Pilot feasibility study of bethanechol in patients with resectable PDA; format: in vivo, human
Method: Our ongoing pilot feasibility study assesses the impact of 1 week of a fixed dose of bethanechol on pharmacodynamics endpoints in resected pancreatic cancer specimens. […] Subjects receive 100 mg of bethanechol by mouth twice daily for 1 week, discontinuing bethanechol 24 hours prior to scheduled surgery. All subjects will be assessed for toxicity while receiving bethanechol, and for 30 days thereafter. The primary endpoint in the pilot study is a change in cell proliferation (Ki-67 index). […] We will compare gene expression profiles and regulatory networks between treated samples with matched controls in our dataset of >200 PDA, RNAseq analysis will be performed.

KPC mice = KPC mice with established PDAC treated with gemcitabine with or without bethanechol; format: in vivo, mouse; conditions: for overall survival (in words): KPC mice with established PDAC, bethanechol + GEM vs GEM alone
Source text: Next, the role of cholinergic signaling in advanced pancreatic cancer was investigated using the genetically engineered KPC (K-Ras^+/LSL-G12D;p53^+/R172H;Pdx-1-Cre) mouse model, which develops ductal adenocarcinoma by 17-19 weeks (Olive et al., 2009, Hingorani et al., 2005).
K-Ras^+/LSL-G12D, p53^+/R172H, and Pdx-1-Cre mice were provided by Dr. Kenneth Olive (Columbia University). M1RKO mice were purchased from the Jackson Laboratory. KC mice and KPC mice were crossed with M1RKO mice. For several experiments, KC mice received pyloroplasty with or without vagotomy at 8 weeks and KC+VxPP mice were treated with or without bethanechol (400 μg/ml) after surgery immediately. They were sacrificed at 20 weeks. In addition, KPC mice were treated with gemcitabine biweekly and with or without bethanechol when the tumor size of 3-5 mm detected using ultrasound. They were sacrificed when the mice were moribund. For liver metastatic experiments, WT type C57/B6 mice received spleen injection and hemi-splenectomy. […] They were sacrificed when the mice were moribund.
Next, the role of cholinergic signaling in established PDAC was investigated using the KPC mouse model, which develops PDAC at a median age of 17-19 weeks^2, 29. KPC mice with pancreatic tumors that measured 3-5 mm in diameter on ultrasound were randomized to treatment with gemcitabine (GEM) alone, or GEM+bethanechol (FIG. 8I).
LSL-Kras^+/LSL-G12D, LSL-Trp53^+/R172H, and Pdx1-Cre mice were bred by Dr. Kenneth P. Olive and co-workers. Chrm1KO mice (C57BL/6-Chrm1tm1 Stl/J, (M1RKO) mice^1 were purchased from the Jackson Laboratory. KC mice and KPC mice were crossed with M1RKO mice. In the vagotomy experiments, KC mice received pyloroplasty with or without vagotomy at 8 weeks, and some KC+VxPP mice were treated with bethanechol ([…] in drinking water) immediately after surgery and then sacrificed at 20 weeks. KPC mice in treatment studies were palpated weekly for tumors in the pancreas. Once a tumor was suspected, KPC mice were screened by VEVO 2100—Ultrasound Imaging System (FUJIFILM VisualSonics) for pancreatic cancer. KPC mice were treated with gemcitabine, given by i.p. injection 100 mg/kg biweekly, with or without bethanechol, when a tumor size of 3-5 mm was detected using ultrasound. Mice were sacrificed when the mice were moribund. NOD/SCID mice were implanted with Panc1 cells subcutaneously and sacrificed at 30 days after implantation. For liver metastatic experiments, WT type C57/B6 mice received a splenic injection of labeled Panc02 cells, followed by hemi-splenectomy. The mice were then divided into three groups. […] Mice were then sacrificed when moribund. At necropsy, hepatic metastases that could clearly be identified as tumor nodules on gross inspection were separated. All animal studies and procedures were approved by the IACUC committee at Columbia University. All mice were bred under specific pathogen free conditions. Comparisons were made with age- and sex-matched control animals.
CD44, p-EGFR, p-PI3K, p-ERK, and Ki67 positive cells were quantified in at least five high power fields from at least 3 mice per group. Total cells per field were counted via morphometric analysis using ImageJ and the ratio of positive cells to total cell number calculated.

Kras mutant Panc1 cells = assay: Ca2+ flux in pancreatic cancer cells; format: cell-based, human; conditions: preliminary studies
[1] = test system: murine PDAC cell lines (Panc02, K8282); assay: MTT assay, murine PDAC cell lines; format: cell-based, mouse; conditions: agonist added to antagonist
Method: (§1) Cell proliferation in each cell line was assessed with a 3-(4,5-dimethylthiazol-2yl)-2,5-diphenyltetrazolium bromide (MTT) assay kit (Sigma) in accordance with the manufacturer's instructions. 3×10^3 cells were grown in 96-well plate to around ˜70% confluent, changed the 0.5% FBS medium, added the drugs respectively and incubated them for further 72 hrs incubation in a typical CO2 incubator (˜20% O2). Treated cells were rinsed twice with PBS, incubated in 10 ll MTT solution for 4 hr at 37° C., and 100 uL DMSO was added to each well. The absorbance of each well was measured at 570 nm using Tilter-Tech 96-well multiscanner (Becton Dickinson, Heidelberg, Germany). The relative number of viable cells compared with the number of cells without drug treatment was expressed as percent cell viability using the following formula:
(§2) Cell proliferation in each cell line was assessed with a 3-(4,5-dimethylthiazol-2yl)-2,5-diphenyltetrazolium bromide (MTT) assay kit (Sigma) in accordance with the manufacturer's instructions. 3×10^3 cells were grown in 96-well plate to ˜70% confluency, the media was changed to 0.5% FBS medium, the respective drugs were added, and they were incubated for an additional 72 hours in a CO2 incubator (˜5% CO2). Treated cells were rinsed twice with PBS, incubated in 10 ul MTT (5 mg/ml PBS) solution for 4 hours at 37° C., and 100 uL DMSO was then added to each well. The absorbance of each well was measured at 570 nm using a Tilter-Tech 96-well multiscanner (Becton Dickinson, Heidelberg, Germany). The relative number of viable cells compared with the number of cells without drug treatment was expressed as percent cell viability using the following formula: cell viability (%)=A570 of treated cells/A570 of untreated cells.

[2] = test system: human PDAC cell lines (MiaPaca2, Panc1); assay: MTT assay, human PDAC cell lines; format: cell-based
Method: as §1, §2

Panc1 cells = assay: RNAseq of Panc1 cells after pilocarpine treatment; format: cell-based, human
Method: Panc1 cells were lysed in RNA lysis buffer supplied in […] PicoPure RNA isolation kit (Life Technologies)(n=4). Total RNA was isolated in accordance with the manufacturer's protocol. cDNA was amplified and libraries were constructed by using SMARTer Ultra Low Input RNA Kit (Clontech Laboratories) and Nextera XT DNA Library Preparation Kit (Illumina) according to the respective manufacturer's instructions. Sequencing was performed with Hiseq 2500 (Illumina) (30 M 100 bp single end reads per sample). Sequenced reads were mapped to the NCBI annotated genes of the […] with BowTie2 and TopHat 2.0.4^5, 6. Reads were counted with HTSeq. Expression datasets were deposited in the Gene Expression Omnibus (GEO)^7 (GSE102880 code: armlggayprundsh). Samples were normalized with the TMM algorithm. The statistical significance of differential expression was estimated with weighted Limma-Voom^8, 9 which runs under Bioconductor/R^10-12. […] First, a screen in terms of Gene Ontology^14 categories for consistency with phenotype was performed. Genes were retained which either: 57 genes fulfilled these requirements, these genes were analyzed further in terms of KEGG pathways^15 with iPathwayGuide^16, 17

[3] = Panc1 cells, pilocarpine, preliminary analysis
[4] = Panc-1 cells treated with pilocarpine

SMILES | plasma TNFα levels (PDA patients; PDA patients, bethanechol 100 mg twice daily for 1 week, preliminary pilot data) | Ki-67, CD44, pERK and p-EGFR (IHC staining of PDA tissue) (PDA patients; bethanechol-treated patients compared to untreated patients) | other cytokine levels such as ICAM-1 and MIF (PDA patients; plasma of a study patient, pre- vs post-treatment, cytokine antibody array) | overall survival (in words) (KPC mice) | overall survival (in words) (KPC mice; listed as Bethanechol) | expression of p-EGFR, p-PI3K and p-ERK1/2 (immunohistochemical staining) (KPC mice; pancreata of KPC mice treated with bethanechol) | Ca2+ flux (Kras mutant Panc1 cells) | increase in proliferation due to muscarinic antagonists [1] | proliferation (MTT assay) ([2]; 72 hours, 0.5% FBS medium) | increase in proliferation due to muscarinic antagonists ([2]; agonist added to antagonist) | expression of growth related genes EGFR and PI3K (RNAseq) (Panc1 cells; Panc1 cells, pilocarpine 1 mM, 72 hrs) | expression of PIK3CA(PI3K), EGFR, KDR(RTK), ITGAV(ITGA), NTRKB(TRKB) and BRAF(RafB) (RNAseq, KEGG pathways) (Panc1 cells; Panc1 cells, pilocarpine treated vs untreated) | expression of BDNF and NGF (Panc1 cells; [3]) | expression of TRK-B receptor (NTRK2) (Panc1 cells; [3]) | expression of BRAF, EGFR, PIK3CA, ITGAV, KDR, and FOXO3 (RNAseq) (Panc1 cells; [4]) | expression of STK11 and FOX06 (RNAseq) (Panc1 cells; [4])
CC(C[N+](C)(C)C)OC(N)=O (stereo not shown) [bethanechol, 2-[(aminocarbonyl)oxy]-N,N,N-trimethyl-1-propanaminium] | trend towards lower | might lead to a decrease | possible reductions | extended significantly; also recorded: significantly extended | significantly extended; also recorded: prolongs | suppressed; also recorded: significantly downregulated | – | – | – | – | – | – | – | – | – | –
CC[C@@H]1C(=O)OC[C@@H]1Cc1cncn1C [pilocarpine, (3S,4R)-3-ethyl-4-[(3-methylimidazol-4-yl)methyl]oxolan-2-one] | – | – | – | – | – | – | unable to stimulate | blocked; also recorded: inhibited to some extent | suppressed | blocked; also recorded: inhibited to some extent | suppressed | downregulated | moderately decreased | one of the most downregulated genes | downregulation | upregulation
